Test results from ChEMBL document CHEMBL1914403 (J Med Chem, 2011).

Key:
[1] = Drug uptake in brain; format: ADME, tissue-based
[2] = Oral bioavailability in rat at 2 mg/kg; format: ADME, organism-based; settings: in vivo
Rattus norvegicus [3] = experiment: Volume of distribution at steady state in rat at 2 mg/kg, po; format: ADME, organism-based; set-up: dose 2 mg/kg, route oral; settings: in vivo
[4] = AUC in brain of rat at 10 mg/kg, po; format: ADME, organism-based; set-up: dose 10 mg/kg, route oral
[5] = AUC in plasma of rat at 10 mg/kg, po; format: ADME, organism-based; set-up: dose 10 mg/kg, route oral
[6] = Oral bioavailability in rat at […]; format: ADME, organism-based; settings: in vivo
Rattus norvegicus [7] = experiment: Volume of distribution at steady state in rat at […], po; format: ADME, organism-based; set-up: dose 2.5 mg/kg, route oral; settings: in vivo
[8] = Oral bioavailability in dog at […]; format: ADME, organism-based, Canis lupus familiaris; settings: in vivo
Canis familiaris [9] = experiment: Volume of distribution at steady state in dog at […], po; format: ADME, organism-based, Canis lupus familiaris; set-up: dose 2.5 mg/kg, route oral; settings: in vivo
MDCK [10] = experiment: Apparent permeability across apical to basolateral side of dog MDCK cells expressing human MDR1; format: ADME, cell-based, Canis lupus familiaris
MDCK [11] = experiment: Apparent permeability across basolateral to apical side of dog MDCK cells expressing human MDR1; format: ADME, cell-based, Canis lupus familiaris
[12] = Oral bioavailability in dog at 2 mg/kg; format: ADME, organism-based, Canis lupus familiaris; settings: in vivo
Canis familiaris [13] = experiment: Volume of distribution at steady state in dog at 2 mg/kg, po; format: ADME, organism-based, Canis lupus familiaris; set-up: dose 2 mg/kg, route oral; settings: in vivo
[14] = Oral bioavailability in rat at 0.1 mg/kg; format: ADME, organism-based; settings: in vivo
[15] = Oral bioavailability in dog at 0.5 mg/kg; format: ADME, organism-based, Canis lupus familiaris; settings: in vivo
Rattus norvegicus [16] = experiment: Volume of distribution at steady state in rat at 0.1 mg/kg, po; format: ADME, organism-based; set-up: dose 0.1 mg/kg, route oral; settings: in vivo
Canis familiaris [17] = experiment: Volume of distribution at steady state in dog at 0.5 mg/kg, po; format: ADME, organism-based, Canis lupus familiaris; set-up: dose 0.5 mg/kg, route oral; settings: in vivo

| Structure (SMILES) | Drug uptake [1] [%] | other results |
| --- | --- | --- |
| COc1ccc2nc(C)c3c(C)nc(-c4ccccc4C)n3c2n1 | > 90 | – |
| COc1ccc2nc(C)c3c(C)nc(-c4ccccc4C(F)(F)F)n3c2n1 | > 90 | – |
| COc1ccc2nc(C)c3c(C)nc(-c4ccccc4Cl)n3c2n1 | > 90 | – |
| COc1ccc2nc(C)c3c(C)nc(-c4cc(Cl)ccc4Cl)n3c2n1 | > 90 | – |
| COc1ccc2nc(C)c3c(C)nc(-c4ccccc4OC(F)(F)F)n3c2n1 | > 90 | – |
| COc1ccc2nc(C)c3c(C(F)(F)F)nc(-c4cc(F)ccc4Cl)n3c2n1 | > 90 | – |
| COc1ccc(Cl)c(-c2nc(C(F)(F)F)c3c(C)nc4ccc(OC)nc4n23)c1 | > 90 | – |
| COc1ccc2nc(C(F)(F)F)c3c(C)nc(-c4ccccc4Cl)n3c2n1 | > 90 | – |
| COc1ccc2nc(C(F)F)c3c(C)nc(-c4ccccc4Cl)n3c2n1 | > 90 | – |
| COc1ccc2nc(C#N)c3c(C)nc(-c4ccccc4Cl)n3c2n1 | > 90 | – |
| COc1ccc2nc(C)c3c(C)nc(-c4cccn4C)n3c2n1 | > 90 | – |
| COc1ccc2nc(C)c3c(C)nc(-c4cn[nH]c4)n3c2n1 | > 90 | – |
| COc1ccc2nc(C)c3c(C)nc(-c4c(C)n[nH]c4C)n3c2n1 | > 90 | – |
| COc1ccc2nc(C)c3c(C)nc(-c4c(C)nn(C)c4C)n3c2n1 | > 90 | bioavailability [2]: 67%; Vdss (Rattus norvegicus [3]): 0.7 L/kg; AUC [4]: 2940 ng·h/mL; AUC [5]: 4130 ng·h/mL |
| COc1ccc2nc(C)c3c(C)nc(-c4c(C)noc4C)n3c2n1 | > 90 | – |
| COc1ccc2nc(C)c3c(C)nc(-c4cccnc4C)n3c2n1 | > 90 | – |
| COc1ccc2nc(C)c3c(C)nc(-c4cnccc4C)n3c2n1 | > 90 | bioavailability [6]: 25%; Vdss (Rattus norvegicus [7]): 1 L/kg; AUC [4]: 866 ng·h/mL; AUC [5]: 747 ng·h/mL |
| COc1ccc2nc(C)c3c(C)nc(-c4ccc(C)nc4)n3c2n1 | > 90 | – |
| COc1ccc2nc(C)c3c(C)nc(-c4cnccc4Cl)n3c2n1 | > 90 | – |
| COc1ccc2nc(C)c3c(C)nc(-c4ccncc4C)n3c2n1 | > 90 | – |
| COc1ccc2nc(C)c3c(C)nc(-c4ccncc4Cl)n3c2n1 | > 90 | – |

| Structure (SMILES) | Drug uptake [1] [%] | other results |
| --- | --- | --- |
| Cc1ccncc1-c1nc(C)c2c(C)nc3ccccc3n12 | > 90 | – |
| Cc1cnccc1-c1nc(C)c2c(C)nc3ccc(F)cc3n12 | > 90 | – |
| Cc1ccncc1-c1nc(C)c2c(C)nc3ccc(Cl)cc3n12 | > 90 | – |
| Cc1cnccc1-c1nc(C)c2c(C)nc3ccc(Cl)cc3n12 | > 90 | – |
| COc1ccc2nc(C)c3c(C)nc(-c4cnccc4C)n3c2c1 | > 90 | – |
| Cc1cnccc1-c1nc(C)c2c(C)nc3ccc(OC(F)(F)F)cc3n12 | > 90 | – |
| Cc1ccncc1-c1nc(C)c2c(C)nc3ccc(C(F)(F)F)cc3n12 | > 90 | – |
| Cc1cnccc1-c1nc(C)c2c(C)nc3ccc(C(F)(F)F)cc3n12 | > 90 | – |
| Cc1ccncc1-c1nc(C)c2c(C)nc3c(F)cc(F)cc3n12 | > 90 | – |
| Cc1cnccc1-c1nc(C)c2c(C)nc3c(F)cc(F)cc3n12 | > 90 | – |
| COc1cc(F)cc2c1nc(C)c1c(C)nc(-c3cnccc3C)n12 | > 90 | – |
| COc1cc(F)cc2c1nc(C)c1c(C)nc(-c3ccncc3C)n12 | > 90 | bioavailability [6]: 27%; bioavailability [8]: 73%; Vdss (Rattus norvegicus [7]): 0.9 L/kg; Vdss (Canis familiaris [9]): 6 L/kg; AUC [4]: 2370 ng·h/mL; AUC [5]: 3640 ng·h/mL; Papp (MDCK [10]): permeable; Papp (MDCK [11]): permeable |
| CCOc1cc(F)cc2c1nc(C)c1c(C)nc(-c3ccccc3C)n12 | > 90 | – |
| Cc1ccccc1-c1nc(C)c2c(C)nc3c(OCC4CC4)cc(F)cc3n12 | > 90 | – |
| COc1cc(N2CCOCC2)cc2c1nc(C)c1c(C)nc(-c3ccncc3C)n12 | > 90 | – |
| COc1cc(OC(F)F)cc2c1nc(C)c1c(C)nc(-c3cccnc3C)n12 | > 90 | bioavailability [14]: 83%; bioavailability [15]: 84%; Vdss (Rattus norvegicus [16]): 0.6 L/kg; Vdss (Canis familiaris [17]): 1.1 L/kg; AUC [4]: 4400 ng·h/mL; AUC [5]: 12700 ng·h/mL |
| COc1cc(C(F)(F)F)cc2c1nc(C)c1c(C)nc(-c3ccncc3C)n12 | > 90 | – |
| COc1cc(Cl)c2nc(C)c3c(C)nc(-c4ccncc4C)n3c2c1 | > 90 | – |
| COc1cc(F)c2nc(C)c3c(C)nc(-c4cnccc4C)n3c2c1 | > 90 | – |
| COc1cc(F)c2nc(C)c3c(C)nc(-c4ccncc4C)n3c2c1 | > 90 | – |
| Cc1cnccc1-c1nc(C)c2c(C)nc3c(F)cc(OC(F)F)cc3n12 | > 90 | – |

Continued, in another order:

| Drug uptake [1] [%] | Structure (SMILES) | other results |
| --- | --- | --- |
| > 90 | COc1ccc2nc(C)c3c(C)nc(-c4ccc(F)cc4Cl)n3c2n1 | – |
| > 90 | COc1ccc2nc(C)c3c(C)nc(-c4ccccc4OC)n3c2n1 | – |
| > 90 | COc1ccc2nc(C)c3c(C)nc(-c4ccccc4C(N)=O)n3c2n1 | – |
| > 90 | COc1ccc2nc(C)c3c(C(F)(F)F)nc(-c4ccccc4C)n3c2n1 | – |
| > 90 | COc1ccc2nc(C)c3c(C(F)(F)F)nc(-c4ccccc4Cl)n3c2n1 | – |
| > 90 | COc1ccc2nc(C)c3c(C(F)(F)F)nc(-c4cc(Cl)ccc4Cl)n3c2n1 | – |
| > 90 | COc1ccc2nc(C)c3c(C(F)(F)F)nc(-c4ccc(F)cc4Cl)n3c2n1 | – |
| > 90 | COc1ccc2nc(C)c3c(C)nc(-c4sccc4C)n3c2n1 | – |
| > 90 | COc1ccc2nc(C)c3c(C)nc(-c4sc(C)nc4C)n3c2n1 | – |
| > 90 | COc1ccc2nc(C)c3c(C)nc(-c4cncnc4)n3c2n1 | – |
| > 90 | COc1ccc2nc(C)c3c(C)nc(-c4cccnc4)n3c2n1 | – |
| > 90 | COc1ccc2nc(C)c3c(C)nc(-c4cccnc4OC)n3c2n1 | – |
| > 90 | COc1ccc2nc(C)c3c(C)nc(-c4cnccc4OC)n3c2n1 | – |
| > 90 | Cc1ccncc1-c1nc(C)c2c(C)nc3ccc(F)cc3n12 | – |
| > 90 | Cc1ccccc1-c1nc(C)c2c(C)nc3ccc(F)cc3n12 | – |
| > 90 | Cc1ccncc1-c1nc(C)c2c(C)nc3ccc(OC(F)(F)F)cc3n12 | – |
| > 90 | Cc1ncccc1-c1nc(C)c2c(C)nc3ccc(C(F)(F)F)cc3n12 | – |

| Drug uptake [1] [%] | Structure (SMILES) | other results |
| --- | --- | --- |
| > 90 | COc1cc(F)cc2c1nc(C)c1c(C)nc(-c3cccnc3C)n12 | – |
| > 90 | COc1cc(F)cc2c1nc(C)c1c(C)nc(-c3sc(C)nc3C)n12 | – |
| > 90 | COc1cc(F)cc2c1nc(C)c1c(C)nc(-c3c(C)nn(C)c3C)n12 | – |
| > 90 | COc1cc(F)cc2c1nc(C)c1c(C)nc(-c3ccccc3C)n12 | – |
| > 90 | Cc1ccccc1-c1nc(C)c2c(C)nc3c(OC(F)F)cc(F)cc3n12 | – |
| > 90 | Cc1ccccc1-c1nc(C)c2c(C)nc3c(OCC(F)(F)F)cc(F)cc3n12 | – |
| > 90 | Cc1ccccc1-c1nc(C)c2c(C)nc3c(O)cc(F)cc3n12 | – |
| > 90 | COc1cc(OC)c2nc(C)c3c(C)nc(-c4cnccc4C)n3c2c1 | bioavailability [6]: 25%; bioavailability [12]: 100%; Vdss (Rattus norvegicus [7]): 1.3 L/kg; Vdss (Canis familiaris [13]): 1.6 L/kg; AUC [4]: 3280 ng·h/mL; AUC [5]: 8850 ng·h/mL |
| > 90 | COc1cc(OC)c2nc(C)c3c(C)nc(-c4ccncc4C)n3c2c1 | – |
| > 90 | COc1cc(OC)c2nc(C)c3c(C)nc(-c4cccnc4C)n3c2c1 | – |
| > 90 | COc1cc(N2CCOCC2)cc2c1nc(C)c1c(C)nc(-c3cccnc3C)n12 | – |
| > 90 | COc1cc(OCc2ccccc2)cc2c1nc(C)c1c(C)nc(-c3cccnc3C)n12 | – |
| > 90 | Cc1cnccc1-c1nc(C)c2c(C)nc3c(Cl)cc(C(F)(F)F)cc3n12 | – |
| > 90 | COc1cc(F)c2nc(C)c3c(C)nc(-c4cccnc4C)n3c2c1 | – |
| > 90 | Cc1cnccc1-c1nc(C)c2c(C)nc3c(F)cc(OCC(F)(F)F)cc3n12 | – |
| > 90 | Cc1cnccc1-c1nc(C)c2c(C)nc3c(F)cc(OCC4CC4)cc3n12 | – |
| > 90 | COc1cc(F)c2nc(C)c3c(C)nc(-c4c(C)nn(C)c4C)n3c2c1 | – |
